Source: paper PMC7165421 (Proceedings of the National Academy of Sciences of the …, 2020)
One block for each molecule: values may come before it.

Tests used:
ARE/Scr dsDNA = assay: DNA binding by fluorescence polarization, ARE/Scr dsDNA; conditions: ΔNTD AR expressed and purified in presence of enzalutamide (20 μM) vs DHT
[1] = test system: AR binding from chromatin; conditions: ChIP assays; cited from earlier work
AR LBD = conditions: cited from earlier work
ΔNTD AR = assay: Peptide binding by fluorescence polarization; parameters: species or system mouse
ARE dsDNA = assay: DNA binding by fluorescence polarization, minimal ARE dsDNA; conditions: ΔNTD AR, specificity control
[2] = test system: ARE containing double-stranded DNA (dsDNA) templates; assay: DNA binding by fluorescence polarization, all ARE dsDNAs tested; conditions: FL AR relative to ΔNTD AR, DHT-bound

stimulation of AR DNA binding (ARE dsDNA): failed to stimulate AR
Molecule: bovine serum albumin (BSA): specificity control

impairment of DNA binding by presence of NTD [2]: greater than 10 fold
B1: FL AR: recombinant AR with the N terminus intact (protein)
chain: MEVQLGLGRVYPRPPSKTYRGAFQNLFQSVREAIQNPGPRHPEAANIAPPGACLQQRQETSPRRRRRQQHTEDGSPQAHIRGPTGYLALEEEQQPSQQQAASEGHPESSCLPEPGAATAPGKGLPQQPPAPPDQDDSAAPSTLSLLGPTFPGLSSCSADIKDILNEAGTMQLLQQQQQQQQHQQQHQQHQQQQEVISEGSSARAREATGAPSSSKDSYLGGNSTISDSAKELCKAVSVSMGLGVEALEHLSPGEQLRGDCMYASLLGGPPAVRPTPCAPLPECKGLPLDEGPGKSTEETAEYSSFKGGYAKGLEGESLGCSGSSEAGSSGTLEIPSSLSLYKSGALDEAAAYQNRDYYNFPLALSGPPHPPPPTHPHARIKLENPLDYGSAWAAAAAQCRYGDLGSLHGGSVAGPSTGSPPATTSSSWHTLFTAEEGQLYGPGGGGGSSSPSDAGPVAPYGYTRPPQGLTSQESDYSASEVWYPGGVVNRVPYPSPNCVKSEMGPWMENYSGPYGDMRLDSTRDHVLPIDYYFPPQKTCLICGDEASGCHYGALTCGSCKVFFKRAAEGKQKYLCASRNDCTIDKFRRKNCPSCRLRKCYEAGMTLGARKLKKLGNLKLQEEGENSNAGSPTEDPSQKMTVSHIEGYECQPIFLNVLEAIEPGVVCAGHDNNQPDSFAALLSSLNELGERQLVHVVKWAKALPGFRNLHVDDQMAVIQYSWMGLMVFAMGWRSFTNVNSRMLYFAPDLVFNEYRMHKSRMYSQCVRMRHLSQEFGWLQITPQEFLCMKALLLFSIIPVDGLKNQKFFDELRMNYIKELDRIIACKRKNPTSCSRRFYQLTKLLDSVQPIARELHQFTFDLLIKSHMVSVDFPEMMAEIISVQVPKILSGKVKPIYFHTQ

Second part, the molecule before the results:

Molecule: CNC(=O)c1ccc(N2C(=S)N(c3ccc(C#N)c(C(F)(F)F)c3)C(=O)C2(C)C)cc1F [ENZ, enzalutamide]
reduction of AR DNA binding relative to DHT (ARE/Scr dsDNA): twofold
displacement of AR from chromatin [1]: displaces AR binding from chromatin in cells

Molecule: KTYRGAFQNLFQSVREA [AF1]
affinity of AF1 for AR LBD (AR LBD): micromolar
binding to ΔNTD AR with full-length ERG present (ΔNTD AR; equimolar full-length ERG, fluorescein-labeled AF1 peptide): further decrease in AF1 binding
affinity for ΔNTD AR compared to ERG AIM peptide (ΔNTD AR; presence and absence of DNA, fluorescein-labeled AF1 peptide): more than an order of magnitude reduced affinity

Molecule: QIQLWHFILELLRKEEY [ERF AIM]
affinity compared to the ERG AIM (ΔNTD AR; ΔNTD AR): slightly less than the ERG AIM
